In paper PMC2363545 (British Journal of Cancer, 2000):
Values joined by “and” are separate entries in the source; they are usually repeats but may differ in a detail not shown here. Equal entries are not always repeated.

Columns and labels:
advanced breast cancer = details: in vivo
[1] = tested on: liver metastases (murine T50/80 breast); design: species or system mice; details: mouse, in vivo
[2] = in vivo
anal carcinoma = details: in vivo
[3] = mouse, in vivo
metastatic breast cancer = details: in vivo
[4] = tested on: topoisomerase II expression in NIH3T3 cells
carcinoma of cervix = details: in vivo
cervix cancer = details: in vivo
[5] = in vivo; remark: listed apart in the source
SCLC = details: in vivo
[6] = tested on: advanced head and neck cancer; details: in vivo
metastatic RCC = tested on: metastatic RCC; design: species or system human; details: in vivo, po
VB6 and H357 SCC cells = format: cell-based, human
[7] = tested on: NQO2-transfected rodent or non-transfected human tumor cell lines
[8] = in vivo; remark: listed apart in the source
[9] = biological target: reduced-folate carrier (RFC) (Homo sapiens, UniProt P41440); details: read-out: Km for the RFC
reduced-folate carrier (RFC), sequence (P41440 whole entry): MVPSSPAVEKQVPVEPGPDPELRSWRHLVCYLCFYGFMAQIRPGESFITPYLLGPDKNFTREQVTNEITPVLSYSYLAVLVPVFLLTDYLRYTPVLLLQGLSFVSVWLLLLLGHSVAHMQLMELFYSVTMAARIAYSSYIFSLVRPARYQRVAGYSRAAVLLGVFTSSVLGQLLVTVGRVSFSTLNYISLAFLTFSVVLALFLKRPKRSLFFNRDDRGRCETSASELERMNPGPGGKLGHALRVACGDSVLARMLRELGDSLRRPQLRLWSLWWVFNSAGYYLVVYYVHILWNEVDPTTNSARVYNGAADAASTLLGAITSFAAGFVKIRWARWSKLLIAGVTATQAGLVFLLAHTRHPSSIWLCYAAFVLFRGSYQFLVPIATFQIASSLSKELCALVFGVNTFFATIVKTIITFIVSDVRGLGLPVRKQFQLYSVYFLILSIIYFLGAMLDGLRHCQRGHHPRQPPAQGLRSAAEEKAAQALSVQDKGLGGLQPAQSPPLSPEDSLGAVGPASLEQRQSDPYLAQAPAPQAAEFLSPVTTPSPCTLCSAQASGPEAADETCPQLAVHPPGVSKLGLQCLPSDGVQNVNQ

[10] = in vivo; remark: listed apart in the source
[11] = in vivo; remark: listed apart in the source
breast cancer cell lines [12] = tested on: breast cancer cell lines
breast cancer cell lines [13] = details: cited from earlier work
DNA-topoisomerase I = DNA-topoisomerase I (Homo sapiens, UniProt P11387); format: biochemical
DNA-topoisomerase I, sequence (P11387 whole entry): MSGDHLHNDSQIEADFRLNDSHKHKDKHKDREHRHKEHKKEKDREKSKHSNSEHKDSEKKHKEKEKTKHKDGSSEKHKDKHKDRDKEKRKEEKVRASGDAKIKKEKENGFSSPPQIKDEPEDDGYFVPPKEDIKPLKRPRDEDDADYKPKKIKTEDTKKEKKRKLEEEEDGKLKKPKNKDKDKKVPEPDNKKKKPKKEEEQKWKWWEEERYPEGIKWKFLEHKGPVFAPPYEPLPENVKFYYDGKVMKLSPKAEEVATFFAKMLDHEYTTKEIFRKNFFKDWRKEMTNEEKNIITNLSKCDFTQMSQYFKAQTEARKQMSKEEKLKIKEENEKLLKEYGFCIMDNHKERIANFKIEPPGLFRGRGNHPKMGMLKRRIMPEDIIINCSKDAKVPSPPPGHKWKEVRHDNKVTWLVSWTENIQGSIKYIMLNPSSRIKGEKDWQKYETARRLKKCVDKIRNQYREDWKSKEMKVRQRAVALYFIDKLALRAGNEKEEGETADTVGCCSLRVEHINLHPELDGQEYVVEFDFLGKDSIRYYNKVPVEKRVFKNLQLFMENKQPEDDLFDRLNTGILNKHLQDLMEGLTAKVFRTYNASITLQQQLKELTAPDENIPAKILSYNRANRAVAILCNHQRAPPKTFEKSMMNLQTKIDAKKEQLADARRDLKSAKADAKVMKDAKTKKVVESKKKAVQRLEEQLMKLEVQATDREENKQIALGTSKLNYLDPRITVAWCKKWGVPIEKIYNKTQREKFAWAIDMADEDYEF

CC(C)(C#N)c1cc(Cn2cncn2)cc(C(C)(C)C#N)c1 [AN]
OR (CR+PR) (advanced breast cancer): 29% | median TTP (advanced breast cancer): 8.5 months and 10.7 months | thromboembolic events (advanced breast cancer): 4.5% | vaginal bleeding (advanced breast cancer): 1.2%

C[C@]12CC[C@@H]3c4ccc(O)cc4CC[C@H]3[C@@H]1CC[C@@H]2O [E2, Oestradiol]
induction of integrin 1 expression (MCF-7): 1.7 fold | reduction of integrin 1 expression (MCF-7): 29%

COc1ccc(/C=C\c2cc(OC)c(OC)c(OC)c2)cc1O [combretastatin A4]
average decrease in tumour volume [1]: 30%

O=c1[nH]cc(F)c(=O)[nH]1 [5-FU]
Kelim [2]: 3.7 0.8 hr-1 | PD (anal carcinoma): 4% | PR (anal carcinoma): 22% | acute skin toxicity grade 3 (anal carcinoma): 96% | clinical CR (anal carcinoma): 74%

CC[C@H](CO)Nc1nc(NCc2ccccc2)c2ncn(C(C)C)c2n1 [roscovitine]
cross-resistance of HCT116/8FP cells (colorectal cell lines): no cross-resistance | correlation of PK parameters, combination vs alone (spearman r) [3]: 0.99 | ranking of AUC and clearance [3]: highest AUC and the lowest clearance

Cn1cnc2c(NCc3ccccc3)nc(NCCO)nc21 [olomoucine]
correlation of PK parameters, combination vs alone (spearman r) [3]: 0.90

CC(=O)O[C@@]12CO[C@@H]1C[C@H](O)[C@@]1(C)C(=O)[C@H](O)C3=C(C)[C@@H](OC(=O)[C@H](O)[C@@H](NC(=O)OC(C)(C)C)c4ccccc4)C[C@@](O)([C@@H](OC(=O)c4ccccc4)[C@H]21)C3(C)C [TAX]
median survival (metastatic breast cancer): 204 days | patients requiring admission due to neutropenic sepsis (metastatic breast cancer): 40% | patients showing response (metastatic breast cancer): 53%

CC/C(=C(\c1ccccc1)c1ccc(OCCN(C)C)cc1)c1ccccc1 [TAM]
OR (CR+PR) (advanced breast cancer): 27% | median TTP (advanced breast cancer): 7.0 months and 6.4 months | thromboembolic events (advanced breast cancer): 7.6% | vaginal bleeding (advanced breast cancer): 2.9%

CCOc1ccc(-c2nc3ccc(-c4nc5ccc(N6CCN(C)CC6)cc5[nH]4)cc3[nH]2)cc1 [Hoechst 33342]
expression of top2 at confluence [4]: increased expression

N.N.[Cl][Pt][Cl] [cisplatin]
general malaise (carcinoma of cervix): 56% | grade 3 or severe (grade 4) neutropaenia (cervix cancer): 27% | some degree of neutropaenia (cervix cancer): 70 % of patients | thrombocytopaenia (cervix cancer): 12% | hypomagnesaemia [5]: 14 % of all chemotherapy cycles

C[C@@H](O)[C@@H]1NC(=O)[C@H](CCCCN)NC(=O)[C@@H](Cc2c[nH]c3ccccc23)NC(=O)[C@H](Cc2ccccc2)NC(=O)[C@@H](NC(=O)[C@H](N)Cc2ccccc2)CSSC[C@@H](C(=O)N[C@H](CO)[C@@H](C)O)NC1=O [Octreotide]
neutropenic pyrexia (SCLC): 9 % of treatment cycles

Oc1cccc(-c2c3nc(c(-c4cccc(O)c4)c4ccc([nH]4)c(-c4cccc(O)c4)c4nc(c(-c5cccc(O)c5)c5ccc2[nH]5)CC4)C=C3)c1 [Foscan]
neurotoxicity [6]: No specific neurotoxicity | tumour effect [6]: consistent tumour necrosis

O=C1CCC(N2C(=O)c3ccccc3C2=O)C(=O)N1 (stereo not shown) [Thalidomide]
response rate (metastatic RCC): 10%

COc1c(C[C@@H](C)OC(=O)Oc2ccc(O)cc2)c2c3c(C[C@@H](C)OC(=O)c4ccccc4)c(OC)c(=O)c4c(O)cc(OC)c(c5c(OC)cc(O)c(c1=O)c52)c43 [Calphostin C]
VB6 cell migration reduced to (VB6 and H357 SCC cells): 7.8%

NC(=O)c1cc(N2CC2)c([N+](=O)[O-])cc1[N+](=O)[O-] [CB1954, 5-(aziridin-l-yl)-2,4-dinitrobenzamide]
increase in CB 1954 cytotoxicity in the presence of NRH [7]: 100-3000 fold | drug unchanged in the urine [8]: < 5% | median elimination half-life [8]: 51 min | time serum levels greater than 0.1 µM [8]: more than 4 hours | time serum levels greater than 1 M [8]: 2 h | maximum tolerated dose (MTD) ([8]; iv): 37.5 mg/m2

O=P(O)(O)C(O)(Cn1ccnc1)P(=O)(O)O [zoledronate]
proportion of apoptotic cells (MCF7 cells): significant increase

C#CCN(Cc1cc2c(=O)[nH]c(C)nc2cc1C)c1ccc(C(=O)N[C@@H](CCc2nnn[nH]2)C(=O)O)c(F)c1 [ZD9331]
Km [9]: 1 to 2 µM

COc1cc2c(c(OC)c1OC)-c1ccc(O)cc1[C@@H](NC(C)=O)CC2 [N-acetylcolchinol]
concentrations at which toxicity/antiproliferative effects occur (HUVECs): > 100 M

COc1cc(/C=C/C(=O)CC(=O)/C=C/c2ccc(O)c(OC)c2)ccc1O [curcumin, diferuloylmethane]
metabolism (hepatocytes): metabolised to THC, HHC and HHCO

carboplatin
Grade 1 reaction [10]: 45 % of patients | HSR on rechallenge with a platinum compound [10]: 66% | grade II reaction [10]: 25 % of patients | grade III reaction [10]: 30 % of patients | incidence of HSR [10]: 10.5% | mean duration of HSR [10]: 44 min | mean time interval between initial exposure and HSR [10]: 26.5 months | mean time of onset of symptoms [10]: 14.5 min | overall incidence of HSR [10]: 4.5% | AUC achieved, mean standard deviation [11]: 11420 % of target

COc1cc2c(cc1OS(N)(=O)=O)CC[C@@H]1[C@@H]2CC[C@]2(C)C(=O)CC[C@@H]12 [2-MeOEMATE, 2-Methoxyestrone-3-O-Sulfamate]
effect on tubulin assembly (tubulin): inhibited the ability of paclitaxel to promote tubulin assembly | fold more potent than parent compounds (breast cancer cell lines [12]): > 10 fold | G2/M arrest in breast cancer cells in vitro (breast cancer cell lines [13]): induced G2/M arrest

CC[C@@]1(O)C(=O)OCc2c1cc1n(c2=O)Cc2cc3ccccc3nc2-1 [camptothecin]
nicked DNA / cleavage (DNA-topoisomerase I): 90%
